Legend:
[1] = system: MOLT-4; test: Tested for the suppressive effect on giant cell formation in MOLT-4 and MOLT-4/HIV LAV-1 cells (value obtained in the presence of 10% FCS); type: functional, cell-based; settings: Homo sapiens
[2] = system: MT4; test: Tested for appearance of MT-4 cell toxicity after 5 days of incubation; type: functional; settings: Homo sapiens, MT4, 120 h; read-out: TD50 (the source's name)
[3] = system: MT4; test: Tested against HIV-1 induced cytopathic effect in MT-4 cells on KK-1AIDS (strain clinically isolated from an AIDS patient); type: functional, Homo sapiens
[4] = system: MT4; test: Tested against HIV-1 induced cytopathic effect in MT-4 cells on LAV-1 strain; type: functional, Homo sapiens
[5] = system: Human immunodeficiency virus 1; test: Tested against HIV-1 replication of KK-1AIDS strain in peripheral blood mononuclear cells (value obtained in the presence of 20% FCS); type: functional, organism-based
[6] = Tested for anticoagulation effect by Zuchker's activated partial thromboplastin time (APTT) method; type: functional
[7] = system: MT4; test: (§1) Tested for cytopathic effect caused by KK-1AIDS strain in MT-4 cells in the presence of human serum; type: functional, cell-based
[8] = system: MT4; test: (§2) Tested for cytopathic effect caused by LAV-1 strain in MT-4 cells in the presence of human serum; type: functional, cell-based
[9] = as §1; type: functional, cell-based; settings: MT4, Serum
[10] = as §2; type: functional, cell-based; settings: MT4, Serum

IC50 [1] | IC50 [5] | IC50 [9] | IC50 [10] | Structure (SMILES) | CC50 [2] | IC100 [3] | IC100 [4] | APTT [6] | IC50 [7] | IC50 [8]
2 µg/mL | 6.5 µg/mL |  |  | O=S(=O)([O-])OCC1O[C@H]2O[C@@H]3C(CSCc4ccccc4)O[C@H](O[C@@H]4C(COS(=O)(=O)[O-])O[C@H](O[C@@H]5C(COS(=O)(=O)[O-])O[C@@H](O[C@@H]6C(CSCc7ccccc7)O[C@H](O[C@@H]7C(COS(=O)(=O)[O-])O[C@H](O[C@@H]8C(CSCc9ccccc9)O[C@H](O[C@H]1C(O)C2OS(=O)(=O)[O-])C(OS(=O)(=O)[O-])C8OS(=O)(=O)[O-])C(OS(=O)(=O)[O-])C7OS(=O)(=O)[O-])C(OS(=O)(=O)[O-])C6OS(=O)(=O)[O-])C(O)C5OS(=O)(=O)[O-])C(OS(=O)(=O)[O-])C4OS(=O)(=O)[O-])C(OS(=O)(=O)[O-])C3OS(=O)(=O)[O-].[K+].[K+].[K+].[K+].[K+].[K+].[K+].[K+].[K+].[K+].[K+].[K+].[K+].[K+].[K+].[K+] (some centres undefined) | > 1000 µg/mL | 1.95 µg/mL | 0.98 µg/mL | 7.1 µg/mL | 11 µg/mL | 4.5 µg/mL
 |  |  |  | O=S(=O)([O-])OCC1O[C@H]2O[C@@H]3C(COS(=O)(=O)[O-])O[C@H](O[C@@H]4C(COS(=O)(=O)[O-])O[C@H](O[C@@H]5C(COS(=O)(=O)[O-])O[C@H](O[C@@H]6C(COS(=O)(=O)[O-])O[C@@H](O[C@@H]7C(COS(=O)(=O)[O-])O[C@H](O[C@@H]8C(COS(=O)(=O)[O-])O[C@H](O[C@H]1C(OS(=O)(=O)[O-])C2O)C(OCc1ccccc1)C8OS(=O)(=O)[O-])C(O)C7OS(=O)(=O)[O-])C(OCc1ccccc1)C6OS(=O)(=O)[O-])C(OS(=O)(=O)[O-])C5OS(=O)(=O)[O-])C(OCc1ccccc1)C4OS(=O)(=O)[O-])C(OS(=O)(=O)[O-])C3OS(=O)(=O)[O-].[Na+].[Na+].[Na+].[Na+].[Na+].[Na+].[Na+].[Na+].[Na+].[Na+].[Na+].[Na+].[Na+].[Na+].[Na+].[Na+] (some centres undefined) | > 1000 µg/mL | 3.9 µg/mL | 1.95 µg/mL | 4 µg/mL |  | 
0.46 µg/mL | 3.6 µg/mL | 5.8 µg/mL | 0.87 µg/mL | O=S(=O)([O-])OC[C@@H]1O[C@@H]2O[C@H]3[C@H](OS(=O)(=O)[O-])[C@H](OCc4ccccc4)[C@@H](O[C@H]4[C@H](OS(=O)(=O)[O-])[C@H](OCc5ccccc5)[C@@H](O[C@H]5[C@H](OS(=O)(=O)[O-])[C@H](OCc6ccccc6)[C@@H](O[C@H]6[C@H](OS(=O)(=O)[O-])[C@H](OCc7ccccc7)[C@@H](O[C@H]7[C@H](OS(=O)(=O)[O-])[C@H](OCc8ccccc8)C(O[C@H]8[C@H](OS(=O)(=O)[O-])[C@H](OCc9ccccc9)C(O[C@H]1[C@H](OS(=O)(=O)[O-])[C@@H]2OCc1ccccc1)O[C@H]8COS(=O)(=O)[O-])O[C@H]7COS(=O)(=O)[O-])O[C@H]6COS(=O)(=O)[O-])O[C@H]5COS(=O)(=O)[O-])O[C@H]4COS(=O)(=O)[O-])O[C@H]3COS(=O)(=O)[O-].[Na+].[Na+].[Na+].[Na+].[Na+].[Na+].[Na+].[Na+].[Na+].[Na+].[Na+].[Na+].[Na+].[Na+] | 1000 µg/mL | 0.98 µg/mL | 0.98 µg/mL | 14.8 µg/mL |  | 
 |  |  |  | O=S(=O)([O-])OC[C@@H]1O[C@@H]2O[C@H]3[C@H](OS(=O)(=O)[O-])[C@H](O)[C@@H](O[C@H]4[C@H](OS(=O)(=O)[O-])[C@H](O)[C@@H](O[C@H]5[C@H](OS(=O)(=O)[O-])[C@H](O)[C@@H](O[C@H]6[C@H](OS(=O)(=O)[O-])[C@H](O)[C@@H](O[C@H]7[C@H](OS(=O)(=O)[O-])[C@H](O)C(O[C@H]8[C@H](OS(=O)(=O)[O-])[C@H](O)C(O[C@H]1[C@H](OS(=O)(=O)[O-])[C@@H]2O)O[C@H]8COS(=O)(=O)[O-])O[C@H]7COS(=O)(=O)[O-])O[C@H]6COS(=O)(=O)[O-])O[C@H]5COS(=O)(=O)[O-])O[C@H]4COS(=O)(=O)[O-])O[C@H]3COS(=O)(=O)[O-].[K+].[K+].[K+].[K+].[K+].[K+].[K+].[K+].[K+].[K+].[K+].[K+].[K+].[K+] | > 1000 µg/mL | 125 µg/mL | 31.26 µg/mL | 2.8 µg/mL |  | 
